Data taken from patent US20250154525A1, “PLANT VIRUS MOVEMENT PROTEINS AND METHODS OF USING SAME” (Molecular Transfer, Inc., priority 2016, published 2025).
Several values for one entry are separate records, joined by “and”; a condition that tells them apart may be missing. Equal values may be shown once.

Columns and labels:
HeLa Cells [1] = experiment: GFP plasmid transfection with DOTMA/DOPE plus surface ligand peptide, fluorescent plate reader (Example 1); format: cell-based; details: DOTMA/DOPE + peptide linked to R12 or K16; EF1Alpha eGFP plasmid; 42 hours
Procedure: (§1) Cells were plated to so that on the day of transfection the cells were 70% confluent in 96 well tissue culture plates. A DOMTA/DOPE Lipid solution (1:1 molar ratio) at 2 mg/mL in water were mixed with an equal volume cell surface ligand containing adhesion peptide, the plant virus movement protein, or peptide derived therefrom, that had the nucleic acid binding moiety RRRRRRRRRRRR (SEQ ID NO:109) or KKKKKKKKKKKKKKKK (SEQ ID NO: 102) covalently linked to the N-terminus, or C-terminus of each peptide during peptide synthesis. Peptides were at 2 mg/mL in water. The DOTMA/DOPE and the solution containing the cell surface ligand containing adhesion peptide, the plant virus movement protein, or peptide derived therefrom, surface ligand peptide the was diluted 1 to 1 (v/v) in water. DOMTA/DOPE/PEPTIDE solutions were added to 0.1 mL of a plasmid DNA solution (EF1Alpha eGFP plasmid) at 10 μg/mL in OptiMEM.
(§2) All solutions were at room temperature. A volume of 0.2 mL of a 10 μg/mL solution of DNA was aliquoted into each well of a non-tissue cultured treated plate. 1-12 μL of transfection reagents were added to DNA solutions respectively. The transfection reagent and DNA solution was mixed by pipetting up and down twice. Transfection complexes were formed for 10 minutes. After 10 minutes, 0.01 or 0.02 mL of the transfection complex was added to cells. HuVEC, HeLa, human adult keratinocytes, human primary adult fibroblast, and A549 cells all respectively received 0.01 mL of the transfection complex. Human skeletal muscle cells, mouse C2C12 cells, and Jurkat, cells received 0.02 mL of the transfection complex. Cells were incubated for 42 hours at 37° C. at 5% CO2. Plates were read on a fluorescent plate reader. Cells were also examined visually under a microscope to assess the extent of transfection (in terms of the percent of cells transfected) with a fluorescent microscope. Other modes of analysis, for example quantification with B-galactocidase or luciferase reports plasmids can also be used.
(§3) Surface ligand that caused increase expression of GFP over the lipid DOTMA with no surface ligand were considered to enhance transfection or had higher % cells transfected were considered to enhance transfection. Peptides that gave greater than 2-fold enhancement are noted in bold and could be further optimized by adding different transfection enhancers or could be used with different cationic lipids or polymers.
(§4) Tables 2-7, below, provide the results of the transfection enhancements with the various cell types, while Table 8 lists the peptides that were determined by visual inspection to enhance the transfection of the denoted cell lines over the lipid DOTMA.

HuVec Cells = experiment: as above; format: cell-based; details: DOTMA/DOPE + peptide linked to R12 or K16; EF1Alpha eGFP plasmid; 42 hours
Procedure: as §1, §2, §3, §4

Human Fibroblast Cells = experiment: as above; format: cell-based; details: DOTMA/DOPE + peptide linked to R12 or K16; EF1Alpha eGFP plasmid; 42 hours
Procedure: as §1, §2, §3, §4

Jurkat Cells = experiment: as above; format: cell-based; details: DOTMA/DOPE + peptide linked to R12 or K16; EF1Alpha eGFP plasmid; 42 hours
Procedure: as §1, §2, §3, §4

NL-1 iPS Cells = experiment: as above; format: cell-based; details: DOTMA/DOPE + peptide linked to R12 or K16; EF1Alpha eGFP plasmid; 42 hours
Procedure: as §1, §2, §3, §4

C2C12 Cells = experiment: as above; format: cell-based, mouse; details: DOTMA/DOPE + peptide linked to R12 or K16; EF1Alpha eGFP plasmid; 42 hours
Procedure: as §1, §2, §3, §4

some examined cell types = experiment: Summary of Example 1: transfection expression and % cells transfected over the no peptide control; format: cell-based; details: on some examined cell types
Procedure: as §1, §2, §3

HeLa Cells [2] = experiment: GFP transfection with DOTMA/SEQ ID NO: 72 (fusogenic peptide)/peptide compared with Lipofectamine 2000; format: cell-based
Procedure: as §1, §2
The fusogenic peptide was added to the DOMTA/peptide formulation to achieve a final concentration of 0.1 mg/mL to see if transfection reagents were further enhanced by the addition of a fusogenic peptide and could provide higher transfection efficiency into HeLa cells and expression than the commercially available Lipofectamine 2000.

[3] = 0.1 μL of DOTMA/SEQ ID NO: 72/Peptide in well of a 96 well plate
[4] = 0.2 μL of DOTMA/SEQ ID NO: 72/Peptide in well of a 96 well plate
[5] = 0.3 μL of DOTMA/SEQ ID NO: 72/Peptide in well of a 96 well plate
[6] = 0.4 μL of DOTMA/SEQ ID NO: 72/Peptide in well of a 96 well plate

Substance | Relative Fluorescence of Transfection of HeLa Cells (RF) (HeLa Cells [1]) | Relative Fluorescence of Transfection of HuVec Cells (RF) (HuVec Cells) | Relative Fluorescence of Transfection of Human Fibroblast Cells (RF) (Human Fibroblast Cells) | Relative Fluorescence of Transfection of Jurkat Cells (RF) (Jurkat Cells) | Relative Fluorescence of Transfection of NL-1 iPS Cells (RF) (NL-1 iPS Cells) | Relative Fluorescence of Transfection of C2C12 Cells (RF) (C2C12 Cells) | transfection expression and % cells transfected over the no peptide control (some examined cell types) | Relative Fluorescence DOTMA/SEQ ID NO: 72/Peptide, HeLa Cells (RF) (HeLa Cells [2]; [3]) | Relative Fluorescence DOTMA/SEQ ID NO: 72/Peptide, HeLa Cells (RF) (HeLa Cells [2]; [4]) | Relative Fluorescence DOTMA/SEQ ID NO: 72/Peptide, HeLa Cells (RF) (HeLa Cells [2]; [5]) | Relative Fluorescence DOTMA/SEQ ID NO: 72/Peptide, HeLa Cells (RF) (HeLa Cells [2]; [6])
216 (YRVRVTPKEKTGPMKE) [compound 216] | 6181 | 14693 | 3117 | 3570 | 19626 | 1001 | increased transfection expression and the % cells transfected |  |  |  | 
352 (RIQNLLKITNLRIKFVK) [compound 352] | 32126 | 3130 | 3059 | 3150 | 11628 | 3324 | increased transfection expression and the % cells transfected |  |  |  | 
107 (RRRRRRRR) [compound 107] | 75 |  |  |  | 1441 |  |  |  |  |  | 
224 (KPDVRSYTITG) [compound 224] | 5559 | 15945 | 5995 | 13170 | 25209 | 1469 |  |  |  |  | 
335 (TVFSVDQDNMLE) [compound 335] | 26954 | 6350 | 8534 | 4567 | 14424 | 4689 |  | 12866 | 12458 | 11547 | 9753
502 (RNIAEIIKDI) [compound 502] |  |  |  |  |  | 2589 |  |  |  |  | 
371 (GPAGKDGEAGAQG) [compound 371] | 5180 | 10669 | 4584 | 6093 | 17587 | 983 |  |  |  |  | 
345 (TAGSCLRKFSTMFLF) [compound 345] | 8493 | 2939 | 2816 | 2462 | 7836 | 6569 | increased transfection expression and the % cells transfected |  |  |  | 
327 (VAEIDGIEL) [compound 327] | 5345 | 21018 | 4662 | 14546 | 31383 | 2043 | increased transfection expression and the % cells transfected |  |  |  | 
501 (DLGTAGSCLRRFSTM) [compound 501] |  |  | 9473 | 12350 |  | 5913 | increased transfection expression and the % cells transfected | 23571 | 23993 | 20410 | 14749
234 (YEKPGSPPREVVPRPRPGV) [compound 234] | 3867 | 13956 | 4145 | 5441 | 14410 | 681 |  |  |  |  | 
236 (KNNQKSEPLIGRKKT) [compound 236] | 7202 and 5042 | 14418 | 3630 and 3000 |  | 43542 and 22256 |  | increased transfection expression and the % cells transfected | 5993 | 8846 | 8492 | 7316
235 (KARSFNVNQLLQD) [compound 235] |  | 26940 |  |  |  |  |  |  |  |  | 
349 (RNIAEIIKDI) [compound 349] | 4433 | 22907 | 8810 | 23167 | 33103 |  | increased transfection expression and the % cells transfected |  |  |  | 
393 (LGTIPG) [compound 393] |  |  |  |  |  |  | increased transfection expression and the % cells transfected |  |  |  | 
363 (LAGSCLARFSTM) [compound 363] | 2590 | 1383 | 3008 | 2432 | 4189 | 1080 |  |  |  |  | 
